# According to doi:10.1101/2022.11.01.514793v1 (biorxiv, 2022):
# Target: T1, AdgB (Variovorax paradoxus, UniProt T1X8R6)
# T1 sequence (T1X8R6 28-388 limits assumed): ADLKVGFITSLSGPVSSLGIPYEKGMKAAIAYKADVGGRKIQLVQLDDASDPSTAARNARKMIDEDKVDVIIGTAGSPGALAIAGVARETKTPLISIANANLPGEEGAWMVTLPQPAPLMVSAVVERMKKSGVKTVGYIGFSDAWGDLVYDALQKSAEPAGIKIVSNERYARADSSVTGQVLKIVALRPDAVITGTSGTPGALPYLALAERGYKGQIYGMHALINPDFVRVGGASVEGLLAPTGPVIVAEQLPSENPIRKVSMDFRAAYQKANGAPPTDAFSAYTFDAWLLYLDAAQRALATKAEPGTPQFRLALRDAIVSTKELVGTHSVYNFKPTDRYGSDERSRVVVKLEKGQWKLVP
# Test: isothermal titration calorimetry
# Assay type: binding
row,Kd [µM],Compound
1,8.4,O=C(O)Cc1c[nH]c2cccc(Cl)c12 [4-Cl-IAA]
2,25,O=C(O)CCCc1c[nH]c2ccccc12 [IBA]
3,1.6,O=C(O)CCc1c[nH]c2ccccc12 [IPA]
4,20,O=C(O)Cc1cccc2ccccc12 [NAA]
